Test results published in ChEMBL document CHEMBL2346630 (J Med Chem, 2013).

How the values were obtained:
Assay in all cases: biochemical
[1] = biological target: Cyclin-dependent kinase 1/cyclin B1 (Homo sapiens, UniProt P06493)
Description: Inhibition of human recombinant His6 tagged CDK1/Cyclin B expressed in Sf21 insect cells after 40 mins by scintillation counting analysis

[2] = biological target: Cyclin-dependent kinase 7/ cyclin H (Homo sapiens, UniProt P50613)
Description: Inhibition of human recombinant His6 tagged CDK7/CyclinH/MAT1 expressed in Sf21 insect cells after 40 mins by scintillation counting analysis

CDK9/cyclin T1 = CDK9/cyclin T1 (Homo sapiens, UniProt P50750)
Description: Inhibition of human recombinant His6 tagged CDK9/CyclinT1 expressed in Sf21 insect cells after 40 mins by scintillation counting analysis

[3] = biological target: Cyclin-dependent kinase 2/cyclin A (Homo sapiens, UniProt P24941)
Description: Inhibition of human recombinant His6 tagged CDK2/Cyclin A expressed in Sf21 insect cells after 40 mins by scintillation counting analysis

Sequence of Cyclin-dependent kinase 7/ cyclin H (P51946 whole entry): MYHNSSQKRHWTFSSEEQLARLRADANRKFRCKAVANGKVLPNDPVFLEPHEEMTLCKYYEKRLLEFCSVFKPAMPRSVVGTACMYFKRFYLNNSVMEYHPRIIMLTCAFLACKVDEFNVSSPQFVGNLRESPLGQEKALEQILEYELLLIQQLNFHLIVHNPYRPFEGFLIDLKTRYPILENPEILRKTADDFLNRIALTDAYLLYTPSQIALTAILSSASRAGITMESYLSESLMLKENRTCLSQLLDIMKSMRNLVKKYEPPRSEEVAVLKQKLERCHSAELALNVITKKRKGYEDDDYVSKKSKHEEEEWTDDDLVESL
Sequence of Cyclin-dependent kinase 7/ cyclin H (P50613 whole entry): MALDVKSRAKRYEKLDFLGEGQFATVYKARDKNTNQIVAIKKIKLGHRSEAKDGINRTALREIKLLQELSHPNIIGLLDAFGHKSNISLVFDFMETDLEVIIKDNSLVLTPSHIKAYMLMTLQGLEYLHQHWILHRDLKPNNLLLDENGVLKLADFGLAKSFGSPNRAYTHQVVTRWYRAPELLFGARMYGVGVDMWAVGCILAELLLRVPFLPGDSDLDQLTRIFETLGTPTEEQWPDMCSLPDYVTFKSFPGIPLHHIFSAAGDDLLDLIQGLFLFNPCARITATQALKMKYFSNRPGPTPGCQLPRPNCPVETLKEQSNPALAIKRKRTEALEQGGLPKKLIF
Sequence of CDK9/cyclin T1 (O60563 whole entry): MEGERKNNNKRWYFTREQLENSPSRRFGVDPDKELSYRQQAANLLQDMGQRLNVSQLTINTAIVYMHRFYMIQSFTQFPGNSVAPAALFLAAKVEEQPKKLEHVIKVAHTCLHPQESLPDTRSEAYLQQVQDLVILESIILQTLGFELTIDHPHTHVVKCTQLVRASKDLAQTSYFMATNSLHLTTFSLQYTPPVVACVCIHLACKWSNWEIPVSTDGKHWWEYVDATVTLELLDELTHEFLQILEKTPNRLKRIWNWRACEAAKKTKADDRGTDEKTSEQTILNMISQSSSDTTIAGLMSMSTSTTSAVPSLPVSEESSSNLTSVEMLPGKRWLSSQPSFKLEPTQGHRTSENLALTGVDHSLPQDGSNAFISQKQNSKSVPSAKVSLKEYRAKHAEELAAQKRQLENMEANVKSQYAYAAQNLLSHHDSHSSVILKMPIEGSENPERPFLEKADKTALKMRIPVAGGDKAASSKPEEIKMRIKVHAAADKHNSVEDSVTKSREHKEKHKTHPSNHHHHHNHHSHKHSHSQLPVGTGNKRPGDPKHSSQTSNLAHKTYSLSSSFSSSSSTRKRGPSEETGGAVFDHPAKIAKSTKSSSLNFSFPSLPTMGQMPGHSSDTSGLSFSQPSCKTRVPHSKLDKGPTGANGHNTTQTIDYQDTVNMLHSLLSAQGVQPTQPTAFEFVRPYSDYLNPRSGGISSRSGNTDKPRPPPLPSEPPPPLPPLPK
Sequence of CDK9/cyclin T1 (P50750 whole entry): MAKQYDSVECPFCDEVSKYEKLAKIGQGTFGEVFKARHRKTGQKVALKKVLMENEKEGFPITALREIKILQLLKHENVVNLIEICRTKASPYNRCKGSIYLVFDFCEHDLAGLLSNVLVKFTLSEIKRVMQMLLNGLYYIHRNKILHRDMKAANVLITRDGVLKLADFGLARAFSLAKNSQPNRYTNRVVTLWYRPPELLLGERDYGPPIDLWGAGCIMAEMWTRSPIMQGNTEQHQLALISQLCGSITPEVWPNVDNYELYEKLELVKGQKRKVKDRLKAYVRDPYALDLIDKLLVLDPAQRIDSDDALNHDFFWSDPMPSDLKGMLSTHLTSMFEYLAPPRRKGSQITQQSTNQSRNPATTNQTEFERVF
Sequence of Cyclin-dependent kinase 1/cyclin B1 (P06493 whole entry): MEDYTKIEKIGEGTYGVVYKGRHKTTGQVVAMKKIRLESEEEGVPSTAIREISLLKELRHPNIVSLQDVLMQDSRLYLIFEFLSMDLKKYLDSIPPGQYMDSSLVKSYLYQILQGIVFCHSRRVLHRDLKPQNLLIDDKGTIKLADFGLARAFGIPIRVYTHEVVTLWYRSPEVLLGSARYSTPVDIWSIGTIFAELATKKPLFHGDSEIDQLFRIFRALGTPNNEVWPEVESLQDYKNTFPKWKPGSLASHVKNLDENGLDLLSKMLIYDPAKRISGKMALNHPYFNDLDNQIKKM
Sequence of Cyclin-dependent kinase 1/cyclin B1 (P14635 whole entry, further chain): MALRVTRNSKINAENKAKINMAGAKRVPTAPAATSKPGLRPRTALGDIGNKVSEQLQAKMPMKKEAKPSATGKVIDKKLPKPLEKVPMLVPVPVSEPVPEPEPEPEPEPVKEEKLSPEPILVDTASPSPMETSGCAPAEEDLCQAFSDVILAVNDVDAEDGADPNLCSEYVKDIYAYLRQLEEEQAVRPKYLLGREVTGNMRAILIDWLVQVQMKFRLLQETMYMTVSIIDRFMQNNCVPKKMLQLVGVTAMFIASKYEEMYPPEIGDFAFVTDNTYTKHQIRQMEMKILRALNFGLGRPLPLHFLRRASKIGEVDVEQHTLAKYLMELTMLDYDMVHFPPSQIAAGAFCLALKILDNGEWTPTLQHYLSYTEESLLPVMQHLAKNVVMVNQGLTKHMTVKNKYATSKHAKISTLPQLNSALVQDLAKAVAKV

## CNc1nc(-c2ccccc2)c(-c2ccnc(Nc3cccc([N+](=O)[O-])c3)n2)s1
[1]
  Ki: > 5 µM
[2]
  Ki: > 5 µM
CDK9/cyclin T1
  Ki: > 5 µM

## CNc1nc(C)c(-c2nc(Nc3cccc([N+](=O)[O-])c3)ncc2O)s1
[1]
  Ki: 1.42 µM
[2]
  Ki: > 5 µM
[3]
  Ki: > 5 µM
CDK9/cyclin T1
  Ki: 0.932 µM

## CNc1nc(C)c(-c2ccnc(Nc3cccc(S(N)(=O)=O)c3)n2)s1
[1]
  Ki: 0.006 µM
[2]
  Ki: 1.96 µM
[3]
  Ki: 0.004 µM
CDK9/cyclin T1
  Ki: 0.002 µM

## CNc1nc(C)c(-c2nc(Nc3cccc(S(N)(=O)=O)c3)ncc2O)s1
[1]
  Ki: > 5 µM
[2]
  Ki: > 5 µM
[3]
  Ki: > 5 µM
CDK9/cyclin T1
  Ki: > 5 µM

## CNc1nc(C)c(-c2nc(Nc3cccc(S(N)(=O)=O)c3)ncc2Cl)s1
[2]
  Ki: 0.685 µM
CDK9/cyclin T1
  Ki: 0.011 µM

## CNc1nc(C)c(-c2nc(Nc3cccc(S(N)(=O)=O)c3)ncc2C)s1
[2]
  Ki: 1.18 µM
[3]
  Ki: 0.034 µM
CDK9/cyclin T1
  Ki: 0.005 µM

## CCc1cnc(Nc2cccc(S(N)(=O)=O)c2)nc1-c1sc(NC)nc1C
[1]
  Ki: 0.788 µM
[2]
  Ki: 1.28 µM
[3]
  Ki: 0.845 µM
CDK9/cyclin T1
  Ki: 0.098 µM

## CCCc1cnc(Nc2cccc(S(N)(=O)=O)c2)nc1-c1sc(NC)nc1C
[3]
  Ki: > 5 µM
CDK9/cyclin T1
  Ki: > 5 µM

## CNc1nc(C)c(-c2nc(Nc3cccc(N4CCN(C(C)=O)CC4)c3)ncc2C#N)s1
[1]
  Ki: 0.043 µM
[2]
  Ki: 0.092 µM
[3]
  Ki: 0.043 µM
CDK9/cyclin T1
  Ki: 0.007 µM

## CNc1nc(C)c(-c2nc(Nc3cccc(N4CCNCC4)c3)ncc2C#N)s1
[1]
  Ki: 0.042 µM
[2]
  Ki: 0.068 µM
[3]
  Ki: 0.056 µM
CDK9/cyclin T1
  Ki: 0.005 µM

## CNc1nc(C)c(-c2nc(Nc3ccc(N4CCN(C(C)=O)CC4)cc3)ncc2C#N)s1
[1]
  Ki: 0.045 µM
[2]
  Ki: 0.316 µM
[3]
  Ki: 0.026 µM
CDK9/cyclin T1
  Ki: 0.022 µM

## CNc1nc(C)c(-c2nc(Nc3ccc(N4CCNCC4)cc3)ncc2C#N)s1
[1]
  Ki: 0.079 µM
[2]
  Ki: 0.071 µM
[3]
  Ki: 0.039 µM
CDK9/cyclin T1
  Ki: 0.006 µM

## CNc1nc(C)c(-c2nc(Nc3cccc(N4CCCCC4)c3)ncc2C#N)s1
[1]
  Ki: 0.035 µM
[2]
  Ki: 0.286 µM
[3]
  Ki: 0.042 µM
CDK9/cyclin T1
  Ki: 0.009 µM

## CNc1nc(C)c(-c2nc(Nc3cccc(N4CCN(C(C)=O)CC4)c3)ncc2F)s1
[1]
  Ki: 0.026 µM
[2]
  Ki: 0.302 µM
[3]
  Ki: 0.042 µM
CDK9/cyclin T1
  Ki: 0.007 µM

## CNc1nc(C)c(-c2nc(Nc3cccc(N4CCNCC4)c3)ncc2F)s1
[1]
  Ki: 0.024 µM
[2]
  Ki: 0.193 µM
[3]
  Ki: 0.02 µM
CDK9/cyclin T1
  Ki: 0.004 µM

## CNc1nc(C)c(-c2nc(Nc3cccc(N4CCOCC4)c3)ncc2F)s1
[1]
  Ki: 0.018 µM
[2]
  Ki: 0.473 µM
[3]
  Ki: 0.02 µM
CDK9/cyclin T1
  Ki: 0.003 µM

## CNc1nc(C)c(-c2nc(Nc3cccc(N4CCNCC4)c3)ncc2Cl)s1
[1]
  Ki: 0.088 µM
[2]
  Ki: 0.155 µM
[3]
  Ki: 0.045 µM
CDK9/cyclin T1
  Ki: 0.004 µM

## CNc1nc(C)c(-c2nc(Nc3cccc(N4CCCNCC4)c3)ncc2F)s1
[1]
  Ki: 0.047 µM
[2]
  Ki: 0.111 µM
[3]
  Ki: 0.085 µM
CDK9/cyclin T1
  Ki: 0.005 µM

## CNc1nc(C)c(-c2ccnc(Nc3cccc(N4CCCNCC4)c3)n2)s1
[1]
  Ki: 0.195 µM
[2]
  Ki: 0.433 µM
[3]
  Ki: 0.32 µM
CDK9/cyclin T1
  Ki: 0.019 µM

## CNc1nc(CC(F)(F)F)c(-c2ccnc(Nc3cccc([N+](=O)[O-])c3)n2)s1
[1]
  Ki: > 5 µM
[2]
  Ki: > 5 µM
[3]
  Ki: > 5 µM
CDK9/cyclin T1
  Ki: 0.134 µM

## CNc1nc(CC(F)(F)F)c(-c2ccnc(Nc3cccc(O)c3)n2)s1
[1]
  Ki: 0.556 µM
[2]
  Ki: 3.47 µM
[3]
  Ki: 0.282 µM
CDK9/cyclin T1
  Ki: 0.245 µM

## CNc1nc(CC(F)(F)F)c(-c2ccnc(Nc3ccc(O)cc3)n2)s1
[1]
  Ki: 0.334 µM
[2]
  Ki: 1.54 µM
[3]
  Ki: 0.347 µM
CDK9/cyclin T1
  Ki: 0.278 µM

## CNc1nc(CC(F)(F)F)c(-c2ccnc(Nc3cccc(S(N)(=O)=O)c3)n2)s1
[1]
  Ki: 0.154 µM
[2]
  Ki: 1.98 µM
[3]
  Ki: 0.226 µM
CDK9/cyclin T1
  Ki: 0.156 µM

## CNc1nc(C(F)(F)F)c(-c2ccnc(Nc3cccc(S(N)(=O)=O)c3)n2)s1
[1]
  Ki: 0.0015 µM
[2]
  Ki: 0.047 µM
[3]
  Ki: 0.002 µM
CDK9/cyclin T1
  Ki: 0.002 µM

## CNc1nc(C(F)(F)F)c(-c2ccnc(Nc3ccc(S(N)(=O)=O)cc3)n2)s1
[1]
  Ki: 0.0005 µM
[2]
  Ki: 0.064 µM
[3]
  Ki: 0.0015 µM
CDK9/cyclin T1
  Ki: 0.003 µM

## CNc1ncc(-c2ccnc(Nc3ccc(S(N)(=O)=O)cc3)n2)s1
[2]
  Ki: 0.054 µM

## CNc1ncc(-c2ccnc(Nc3cccc(S(N)(=O)=O)c3)n2)s1
[1]
  Ki: 0.004 µM
[2]
  Ki: 0.04 µM
[3]
  Ki: 0.005 µM
CDK9/cyclin T1
  Ki: 0.003 µM

## CNc1nc(C2CC2)c(-c2ccnc(Nc3cccc(S(N)(=O)=O)c3)n2)s1
[1]
  Ki: 0.018 µM
[2]
  Ki: 0.273 µM
[3]
  Ki: 0.002 µM
CDK9/cyclin T1
  Ki: 0.016 µM

## CNc1nc(C2CC2)c(-c2ccnc(Nc3ccc(S(N)(=O)=O)cc3)n2)s1
[1]
  Ki: 0.002 µM
[2]
  Ki: 0.255 µM
[3]
  Ki: 0.013 µM
CDK9/cyclin T1
  Ki: 0.008 µM

## CNc1nc(C2CC2)c(-c2ccnc(Nc3cccc(N4CCCNCC4)c3)n2)s1
[1]
  Ki: 0.176 µM
[2]
  Ki: 0.464 µM
[3]
  Ki: 0.326 µM
CDK9/cyclin T1
  Ki: 0.066 µM

## CNc1nc(C)c(-c2ccnc(Nc3cccc([N+](=O)[O-])c3)n2)s1
[1]
  Ki: 0.005 µM
[2]
  Ki: 0.417 µM
[3]
  Ki: 0.003 µM
CDK9/cyclin T1
  Ki: 0.002 µM
